In ChEMBL document CHEMBL1130622, “N-(2-(4-hydroxyphenyl)ethyl)-4-chlorocinnamide: a novel antagonist at the 1A/2B NMDA receptor subtype” (Bioorg Med Chem Lett, 1998):
pIC50: −log10 of the molar value.

Key:
Type in all cases: functional, Rattus norvegicus
[1] = Antagonistic activity towards NMDA receptor 1A/2C subtype was determined
[2] = Antagonistic activity towards NMDA receptor 1A/2A subtype was determined
[3] = Antagonistic activity towards NMDA receptor 1A/2B subtype was determined

Row | Compound | pIC50 [1] | pIC50 [2] | pIC50 [3]
1 | O=C(/C=C/c1ccccc1)NCCc1ccc(O)cc1 | < 3.52 | < 3.52 | 6.17
2 | O=C(/C=C/c1ccc(Cl)cc1)NCCc1ccc(Cl)cc1 | < 3.52 | 3.80 | < 3.52
3 | N#C/C(=C\c1ccc(Cl)cc1)C(=O)NCCc1ccc(O)cc1 | 3.98 | 4.11 | 5.47
4 | N#C/C(=C\C(=O)NCCc1ccc(O)cc1)c1ccc(Cl)cc1 | < 3.52 | < 3.52 | 5.05
5 | O=C(/C=C/c1ccc(O)cc1)NCCc1ccc(Cl)cc1 | < 3.52 | < 3.52 | 6.48
6 | O=C(/C=C/c1ccc(Cl)cc1)NCCc1ccccc1 | < 3.52 | < 3.52 | < 3.52
7 | O=C(/C=C/c1ccc(Cl)cc1)NCCc1ccc(O)cc1 | < 3.52 | < 3.52 | 6.77
8 | O=C(/C=C/c1ccc(Cl)cc1)NCCc1cccc(O)c1 | 3.76 | < 3.52 | 5.13
9 | O=C(/C=C/c1ccc(O)cc1)NCCc1ccc(O)cc1 [N-P-COUMAROYL TYRAMINE] | 3.70 | < 3.52 | 4.68
